One compound from patent publication US20240100146A1 (priority 2022, published 2024) can be followed below.

Molecules are shown by their SMILES.

The test concerns MHV1. On the set-up: species or system A/J mice. The following applies: mouse, in vivo.

Take `CC(=O)N[C@H]1[C@H]([C@H](O)[C@H](O)CO)OC(C(=O)O)=C[C@@H]1N=C(N)N` [zanamivir]: the “% protection (survival) against lethal MHV1 challenge” value came out at 0%.
